These compounds were tested against T1, human TRPC6 (Homo sapiens, UniProt Q9Y210) (assay: High throughput screening assay: Fluo4/AM calcium fluorescence in HEK293/TREx cells expressing human TRPC6, agonist GSK1702934A (single concentration 10 μM and IC50 curves)). Settings: antagonist effect against human TRPC6, 7 concentrations 20 μM to 0.027 μM, triplicate.
T1 construct: expressed in transfected cells
T1 sequence (Q9Y210 1-931): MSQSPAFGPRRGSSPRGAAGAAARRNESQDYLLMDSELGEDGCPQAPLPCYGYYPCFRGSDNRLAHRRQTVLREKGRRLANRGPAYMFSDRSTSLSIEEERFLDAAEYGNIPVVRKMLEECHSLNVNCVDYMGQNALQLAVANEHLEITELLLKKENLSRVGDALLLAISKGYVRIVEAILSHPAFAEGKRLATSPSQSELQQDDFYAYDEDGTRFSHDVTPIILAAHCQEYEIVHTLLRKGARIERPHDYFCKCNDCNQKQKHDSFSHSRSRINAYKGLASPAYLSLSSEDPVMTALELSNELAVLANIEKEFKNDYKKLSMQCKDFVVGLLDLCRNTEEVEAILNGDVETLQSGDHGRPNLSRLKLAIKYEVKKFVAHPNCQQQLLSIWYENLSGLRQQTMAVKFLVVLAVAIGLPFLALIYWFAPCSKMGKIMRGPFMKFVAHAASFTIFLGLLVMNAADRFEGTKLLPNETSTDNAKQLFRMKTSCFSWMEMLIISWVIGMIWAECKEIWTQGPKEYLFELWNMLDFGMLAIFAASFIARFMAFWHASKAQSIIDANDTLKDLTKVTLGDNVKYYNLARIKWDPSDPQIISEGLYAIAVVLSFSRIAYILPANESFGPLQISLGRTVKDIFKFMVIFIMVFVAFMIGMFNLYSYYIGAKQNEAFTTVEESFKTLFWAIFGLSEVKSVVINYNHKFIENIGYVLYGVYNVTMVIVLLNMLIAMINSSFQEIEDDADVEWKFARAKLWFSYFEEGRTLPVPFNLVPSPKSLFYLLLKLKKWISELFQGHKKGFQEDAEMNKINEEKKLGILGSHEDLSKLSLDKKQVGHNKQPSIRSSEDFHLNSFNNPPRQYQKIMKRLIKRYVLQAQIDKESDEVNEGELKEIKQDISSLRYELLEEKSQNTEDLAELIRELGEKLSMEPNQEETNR
Assay type: cell-based
Source text: High Throughput Screening Assay
This screening assay measures human TRPC6 (transient receptor potential cation channel, subfamily C, member 6) ion channel activation via addition either of the commercially available DAG ligand analogue OAG (1-oleoyl-2-acetyl-sn-glycerol) or of the TRPC6 agonist 1-[1-(4,5,6,7,8-pentahydrocyclohepta[2,1-d]thiophen-2-ylcarbonyl)-4-piperidyl]-3-hydrobenzimidazol-2-one (GSK1702934A). The assay utilizes a fluorescent calcium sensor 4-(6-Acetoxymethoxy-2,7-difluoro-3-oxo-9-xanthenyl)-4′-methyl-2,2′-(ethylenedioxy)dianiline-N,N,N′,N′-tetraacetic acid tetrakis(acetoxymethyl) ester (Fluo4/AM) dye from Molecular Devices. Changes (increases) in intracellular calcium concentration as measured by the fluorescent signal increase provide a measurement of channel activity.
The commercially available HEK293/TREx line (Invitrogen) was stably transfected with a human TRPC6 construct and screened by conventional calcium imaging to find clones with human TRPC6 expression following stimulation with 1 μg/ml tetracycline. These cells were maintained in the growth medium recommended by the manufacturer supplemented with 100 μg/ml hygromycin to promote retention of the human TRPC6 construct. After growing to near confluency, cells were plated at a density of ^˜35,000 cells/well in 384 well CellBind plates (Corning) in the presence of 1 μg/ml tetracycline, and allowed to grow for 20-30 hrs. A nearly confluent monolayer resulted. Growth media was removed from the wells and cells were then loaded with […] Fluo4/AM diluted in Ringer's Solution (6.5 g NaCl, 0.42 g KCl, 0.25 g CaCl2) and 0.2 g of sodium bicarbonate; pH 7.4) supplemented with 1% Pluronic F-127 to a final concentration of 0.5 μM and incubated for 60 min, at room temperature. Dye solution was then removed from the cells by inverting plates with a sharp flick, and replaced with 25 μl Ringer's. Following ^˜0.5 hour for recovery from loading, cells were assayed using the Hamamatsu FDSS 6000 system, which permitted illumination at 485 nm. Frames were acquired at a rate of 0.2 Hz. During the assay, the plates were continuously vortexed, with pipette mixing of wells following addition of each reagent. For the screening assay, 26 μl of a diluted compound stock (at 50 μM) was added to each well for 2 minutes following the collection of a short (4 frame) baseline. 13 μl of agonist solution consisting of 125 nM GSK1702934A diluted in high-Ca2+Ringer solution (containing 90 mM Ca2+) was then added to each well, achieving a final concentration of 20 mM Ca2+ and 10 μM test compound. Data was collected for ^˜3 minutes following addition of high Ca2+Ringer. The fluorescent intensity observed at a particular timepoint for each well was divided by the initial fluorescent intensity for that well and the overall response was determined by averaging the resulting fluorescent ratio of the last 4 frames acquired during the experiment excepting the final frame. Negative and Positive controls were included on each plate. Negative controls wells consisted of HEK293/TREx TRPC6 cells exposed to assay buffer and agonist solution, but no test compound. Positive control consisted of wells consisted of HEK293/TREx TRPC6 cells exposed to 25 μM 3-[(2-chlorophenoxy)methyl]phenyl piperidyl ketone (Chembridge) diluted in Ringer's solution and agonist solution. These controls defined zero percent and 100 percent block respectively, and intensity of each well was normalized to these values.
Compounds were tested in triplicate at all concentrations. Standard software was used to fit IC50 curves.

| Structure (SMILES) | IC50 |
| --- | --- |
| Nc1ccc(C2CCN(C(=O)c3ccc(-c4ccccc4)cc3)CC2)nn1 [Compound 1, [4-(6-Amino-pyridazin-3-yl)-piperidin-1-yl]-biphenyl-4-yl-methanone] | 3.8 µM |
| CCc1ccc(-c2ccc(C(=O)N3CCC(c4ccc(N)nn4)CC3)cc2)cc1 [Compound 2, [4-(6-Amino-pyridazin-3-yl)-piperidin-1-yl]-(4′-ethyl-biphenyl-4-yl)-methanone] | 2 µM |
| Cc1ccc(-c2ccc(C(=O)N3CCC(c4ccc(N)nn4)CC3)cc2)cc1 [Compound 3, [4-(6-Amino-pyridazin-3-yl)-piperidin-1-yl]-(4′-methyl-biphenyl-4-yl)-methanone] | 1.7 µM |
| Nc1ccc(C2CCN(C(=O)c3ccc(-c4ccc(Cl)cc4)cc3)CC2)nn1 [Compound 4, [4-(6-Amino-pyridazin-3-yl)-piperidin-1-yl]-(4′-chloro-biphenyl-4-yl)-methanone] | 1.9 µM |
| COc1ccc(-c2ccc(C(=O)N3CCC(c4ccc(N)nn4)CC3)cc2)cc1 [Compound 5, [4-(6-Amino-pyridazin-3-yl)-piperidin-1-yl]-(4′-methoxy-biphenyl-4-yl)-methanone] | 2.5 µM |
| Nc1ccc(C2CCN(C(=O)c3ccc(-c4cccc(Cl)c4)cc3)CC2)nn1 [Compound 6, [4-(6-Amino-pyridazin-3-yl)-piperidin-1-yl]-(3′-chloro-biphenyl-4-yl)-methanone] | 4.4 µM |
| Nc1ccc(C2CCN(C(=O)c3ccc(-c4ccc(F)cc4)cc3)CC2)nn1 [Compound 7, [4-(6-Amino-pyridazin-3-yl)-piperidin-1-yl]-(4′-fluoro-biphenyl-4-yl)-methanone] | 3.4 µM |
| Nc1ccc(C2CCN(C(=O)c3ccc(-c4cccc(F)c4)cc3)CC2)nn1 [Compound 8, [4-(6-Amino-pyridazin-3-yl)-piperidin-1-yl]-(3′-fluoro-biphenyl-4-yl)-methanone] | 6.7 µM |
| CC(C)(C)c1ccc(-c2ccc(C(=O)N3CCC(c4ccc(N)nn4)CC3)cc2)cc1 [Compound 10, [4-(6-Amino-pyridazin-3-yl)-piperidin-1-yl]-(4′-tert-butyl-biphenyl-4-yl)-methanone] | 9.2 µM |
| Nc1ccc(C2CCN(C(=O)c3ccc4c(c3)oc3ccccc34)CC2)nn1 [Compound 11, [4-(6-Amino-pyridazin-3-yl)-piperidin-1-yl]-dibenzofuran-3-yl-methanone] | 2 µM |
| Nc1ccc(N2CCN(C(=O)c3ccc(-c4ccc(C(F)(F)F)cc4)cc3)CC2)cn1 [Compound 12, [4-(6-Amino-pyridin-3-yl)-piperazin-1-yl]-(4′-trifluoromethyl-biphenyl-4-yl)-methanone] | 2.4 µM |

Results, then the compound that gave them:

| IC50 | Structure (SMILES) |
| --- | --- |
| 0.33 µM | COc1cc(C(=O)N2CCN(c3cnc(N)cc3OC)CC2CC(F)F)ncc1-c1ccc(C(F)(F)F)cc1 (single isomer, unassigned) [Compound 109] |
| 0.4 µM | COc1cc(C(=O)N2CCN(c3cnc(N)cc3OC)C[C@H]2CC(F)F)ncc1-c1ccc(C(F)(F)F)cc1 (single isomer, unassigned) [Compound 110] |
| 5.4 µM | COc1cccc(-c2ccc(C(=O)N3CCC(c4ccc(N)nn4)CC3)cc2)c1 [Compound 9, [4-(6-Amino-pyridazin-3-yl)-piperidin-1-yl]-(3′-methoxy-biphenyl-4-yl)-methanone] |
| 0.088 µM | COc1cc(-c2cnc(C(=O)N3CCC(c4ccc(N)nn4)CC3)cc2OC)ccc1OC(F)(F)F [Compound 13] |
| 3.3 µM | COc1cc(-c2cnc(C(=O)N3CCC(c4ccc(N)nn4)CC3)cc2OC)ccc1F [Compound 14, [4-(6-Amino-pyridazin-3-yl)-piperidin-1-yl]-[5-(4-fluoro-3-methoxy-phenyl)-4-methoxy-pyridin-2-yl]-methanone] |
| 1.7 µM | COc1cc(C(=O)N2CCC(c3ccc(N)nn3)CC2)ncc1-c1ccc(F)c(OCC(F)(F)F)c1 [Compound 15, [4-(6-Amino-pyridazin-3-yl)-piperidin-1-yl]-{5-(4-fluoro-3-(2,2,2-trifluoro-ethoxy)-phenyl]-4-methoxy-pyridin-2-yl}-methanone] |
| 0.39 µM | COc1cc(C(=O)N2CCC(c3ccc(N)nn3)CC2)ncc1-c1ccc2c(c1)OCC2 [Compound 16, [4-(6-Amino-pyridazin-3-yl)-piperidin-1-yl]-[5-(2,3-dihydro-benzofuran-6-yl)-4-methoxy-pyridin-2-yl]-methanone] |
| 0.075 µM | COc1cc(C(=O)N2CCC(c3ccc(N)nn3)CC2)ncc1-c1ccc(OCC2CC2)cc1 [Compound 17, [4-(6-Amino-pyridazin-3-yl)-piperidin-1-yl]-[5-(4-cyclopropylmethoxy-phenyl)-4-methoxy-pyridin-2-yl]-methanone] |
| 2.7 µM | COc1cc(C(=O)N2CCC(c3ccc(N)nn3)CC2)ncc1-c1ccc(OCC2CC2)c(Cl)c1 [Compound 18] |
| 0.61 µM | COc1cc(C(=O)N2CCC(c3ccc(N)nn3)CC2)ncc1-c1ccc(OC(C)C)c(Cl)c1 [Compound 19] |
| 0.45 µM | COc1cc(C(=O)N2CCC(c3ccc(N)nn3)CC2)ncc1-c1ccc(OC(C)C)c(F)c1 [Compound 20, [4-(6-Amino-pyridazin-3-yl)-piperidin-1-yl]-[5-(3-fluoro-4-isopropoxy-phenyl)-4-methoxy-pyridin-2-yl]-methanone] |
| 0.16 µM | COc1cc(C(=O)N2CCC(c3ccc(N)nn3)CC2)ncc1-c1cccc(OCC2CC2)c1 [Compound 21, [4-(6-Amino-pyridazin-3-yl)-piperidin-1-yl]-[5-(3-cyclopropylmethoxy-phenyl)-4-methoxy-pyridin-2-yl]-methanone] |
| 0.43 µM | COc1cc(C(=O)N2CCC(c3ccc(N)nn3)CC2)ncc1-c1ccc2c(c1)OCCO2 [Compound 22, [4-(6-Amino-pyridazin-3-yl)-piperidin-1-yl]-[5-(2,3-dihydro-benzo[l ,4]dioxin-6-yl)-4-methoxy-pyridin-2-yl]-methanone] |
| 0.069 µM | COc1cc(C(=O)N2CCC(c3ccc(N)nn3)CC2)ncc1-c1ccc(OC2CCCC2)cc1 [Compound 23, [4-(6-Amino-pyridazin-3-yl)-piperidin-1-yl]-[5-(4-cyclopentyloxy-phenyl)-4-methoxy-pyridin-2-yl]-methanone] |
| 0.42 µM | COc1cc(C(=O)N2CCC(c3ccc(N)nn3)CC2)ncc1-c1ccc(C(F)(F)F)cc1Cl [Compound 24, [4-(6-Amino-pyridazin-3-yl)-piperidin-1-yl]-[5-(2-chloro-4-trifluoromethyl-phenyl)-4-methoxy-pyridin-2-yl]-methanone] |
| 0.34 µM | COc1cc(C(=O)N2CCC(c3ccc(N)nn3)CC2)ncc1-c1ccc(C(F)(F)F)c(OC)c1 [Compound 25] |
